# Target: T1, human CRTH2 (Homo sapiens, UniProt Q9Y5Y4)
# T1 construct: expressed in transfected cells
# T1 sequence (Q9Y5Y4 1-395): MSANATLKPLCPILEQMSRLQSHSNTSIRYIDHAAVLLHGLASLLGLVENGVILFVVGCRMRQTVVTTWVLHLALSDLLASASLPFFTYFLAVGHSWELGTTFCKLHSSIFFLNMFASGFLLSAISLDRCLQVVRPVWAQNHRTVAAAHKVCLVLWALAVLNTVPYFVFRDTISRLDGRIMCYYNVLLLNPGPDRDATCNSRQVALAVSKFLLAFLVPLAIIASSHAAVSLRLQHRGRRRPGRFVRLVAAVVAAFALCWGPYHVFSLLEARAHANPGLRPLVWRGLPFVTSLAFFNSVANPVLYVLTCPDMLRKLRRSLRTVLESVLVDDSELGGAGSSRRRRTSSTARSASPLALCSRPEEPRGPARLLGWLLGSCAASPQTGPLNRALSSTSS
# Test: Human CRTH2 Receptor Binding Assay (whole cell, [3H]ramatroban competition)
# Details: CHO-K1 cells expressing human CRTH2 and G-alpha16; 20 nM [3H]ramatroban; 1 hour, room temperature
# In short: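 CHO-K1 cells stably co-expressing human CRTH2 and G-alpha16, 1.5×10^5 per reaction, incubated 1 hour at room temperature with 20 nM [3H]ramatroban in PBS containing 10 mM MgCl2 and 0.06% BSA. Non-specific binding defined with 10 μM 15(R)-15-methyl PGD2. IC50 from 7 concentrations by 4-parameter logistic fit of specific binding inhibition.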
structure (smiles),measurement,value
"Cc1ccc(S(=O)(=O)c2cc(C(F)(F)F)cc(S(=O)(=O)N(C)[C@@H]3CCCc4c3cnn4CC(=O)O)c2)cc1 [Example 13-2a, ((R)-4-{Methyl-[3-(toluene-4-sulfonyl)-5-trifluoromethyl-benzenesulfonyl]-amino}-4,5,6,7-tetrahydro-indazol-1-yl)-acetic acid]",IC50,2.7 nM
"CN([C@@H]1CCCc2c1cnn2CC(=O)O)S(=O)(=O)c1cnc(Oc2ccc(Cl)cc2)c(C2(C)CC2)c1 [Example 8-1a, ((R)-4-{[6-(4-Chloro-phenoxy)-5-(1-methyl-cyclopropyl)-pyridine-3-sulfonyl]-methyl-amino}-4,5,6,7-tetrahydro-indazol-1-yl)-acetic acid]",IC50,14.5 nM
"CN([C@@H]1CCCc2c1cnn2CC(=O)O)S(=O)(=O)c1ccc(Oc2ccc(F)cc2)c(Cl)c1 [Example 9-14a, ((R)-4-{[3-Chloro-4-(4-fluoro-phenoxy)-benzenesulfonyl]-methyl-amino}-4,5,6,7-tetrahydro-indazol-1-yl)-acetic acid]",IC50,4.4 nM
"O=C(O)Cn1ncc2c1CCCC2NS(=O)(=O)c1cnc(Oc2ccc(Cl)cc2)c(Br)c1 (stereo not shown) [Example 2-1a, {4-[5-Bromo-6-(4-chloro-phenoxy)-pyridine-3-sulfonylamino]-4,5,6,7-tetrahydro-indazol-1-yl}-acetic acid]",IC50,7.2 nM
"CN([C@@H]1CCCc2c1cnn2CC(=O)O)S(=O)(=O)c1cc(Oc2ccc(F)cc2)cc(C(F)(F)F)c1 [Example 9-42a, ((R)-4-{[3-(4-Fluoro-phenoxy)-5-trifluoromethyl-benzenesulfonyl]-methyl-amino}-4,5,6,7-tetrahydro-indazol-1-yl)-acetic acid]",IC50,22.6 nM
"O=C(O)Cn1ncc2c1CCCC2NS(=O)(=O)c1ccc(Oc2ccc(F)cc2)nc1 (stereo not shown) [Example 4-1a, {4-[6-(4-Fluoro-phenoxy)-pyridine-3-sulfonylamino]-4,5,6,7-tetrahydro-indazol-1-yl}-acetic acid]",IC50,158 nM
"Cc1cc(C)cc(-c2ccc(S(=O)(=O)NC3CCCc4c3cnn4CC(=O)O)cc2)c1 (stereo not shown) [Example 10-18a, [4-(3′,5′-Dimethyl-biphenyl-4-sulfonylamino)-4,5,6,7-tetrahydro-indazol-1-yl]-acetic acid]",IC50,188 nM
"O=C(O)Cn1ncc2c1CCCC2NS(=O)(=O)c1ccc(-c2cccc(OC(F)(F)F)c2)cc1 (stereo not shown) [Example 10-14a, [4-(3′-Trifluoromethoxy-biphenyl-4-sulfonylamino)-4,5,6,7-tetrahydro-indazol-1-yl]-acetic acid]",IC50,58.1 nM
"CN([C@@H]1CCCc2c1cnn2CC(=O)O)S(=O)(=O)c1ccc(Oc2ccc(Cl)c(F)c2)c(Cl)c1 [Example 9-21a, ((R)-4-{[3-Chloro-4-(4-chloro-3-fluoro-phenoxy)-benzenesulfonyl]-methyl-amino}-4,5,6,7-tetrahydro-indazol-1-yl)-acetic acid]",IC50,13.2 nM
"O=C(O)CCn1ncc2c1CCCC2NS(=O)(=O)c1ccc(-c2ccccc2)cc1 (single isomer, unassigned) [Example 10-30a, 3-[4-(biphenyl-4-sulfonylamino)-4,5,6,7-tetrahydro-indazol-1-yl]-propionic acid]",IC50,5.6 nM
"O=C(O)CCn1ncc2c1CCCC2NS(=O)(=O)c1ccc(-c2ccccc2)cc1 (stereo not shown) [Example 1-6a, 3-[4-(Biphenyl-4-sulfonylamino)-4,5,6,7-tetrahydro-indazol-1-yl]-propionic acid]",IC50,475 nM
"C[S+]([O-])c1cccc(-c2ccc(S(=O)(=O)N[C@@H]3CCCc4c3cnn4CC(=O)O)cc2)c1 (stereo partly drawn) [Example 10-29a, [(R)-4-(3′-Methanesulfinyl-biphenyl-4-sulfonylamino)-4,5,6,7-tetrahydro-indazol-1-yl]-acetic acid]",IC50,27.5 nM
"CN([C@@H]1CCCc2c1cnn2CC(=O)O)S(=O)(=O)c1ccc(Oc2ccc(C(N)=O)cc2)c(Cl)c1 [Example 9-36a, ((R)-4-{[4-(4-Carbamoyl-phenoxy)-3-chloro-benzenesulfonyl]-methyl-amino}-4,5,6,7-tetrahydro-indazol-1-yl)-acetic acid]",IC50,23.1 nM

# Source: patent publication US8420675B2, “Aminotetrahydroindazoloacetic acids” (Hoffmann-La Roche Inc., priority 2008, dated 2013)
